The text below walks through data of patent US20100150944A1, “METHODS AND COMPOSITIONS FOR DIAGNOSIS AND TREATMENT OF DEPRESSION AND ANXIETY” (MODGENE, LLC, priority 2007, published 2010).

Test [1] concerns C57BL/6J mice. The test is described as follows: forced-swim test, C57BL/6J mice. It is filed as in vivo, mouse. The note with it: for immobility in forced-swim test: last 4 minutes of 6-minute test. As for the experimental part: Briefly, in the Porsolt forced swim test, swim sessions are conducted by placing animals in containers with a level of water selected to be deep enough so that the animal cannot touch the bottom with its hind limbs or tail, nor can it escape. Two swim sessions are conducted, an initial 15 minute pretest one day prior to administration of the antidepressant drug and a second 5 minute test after administration of the drug (e.g., infusion of the drug into the midbrain) is begun. Each animal's 5 minute test sessions are videotaped for scoring later. The amount of time the animal spends active (swimming, exploring or trying to escape) and the time the rat is immobile (not struggling and making only those movements necessary to keep its head above water) is measured. Drugs with anti-depressant like activity decrease the immobility time.
(§1) As described above, the murine responses in forced swim and tail suspension tests provides a model for determining depression. We tested C57BL/6J and DBA/2J mice in the forced-swim and tail-suspension tests. In the forced-swim test, mice were gently placed in a clear plastic cylinder, diameter of 16 cm, height 25 cm, filled with 10 cm of clear water at 25° C. Test duration was 6 minutes and immobility, defined as the absence of all movement except minor movement required for the mouse to keep its head above the surface, was measured during the last 4 minutes. In the tail-suspension test, mice were suspended from a metal rod mounted 50 cm above the surface by fastening the tail to the rod with adhesive tape. The duration of the test was 6 minutes and immobility, defined as the absence of all but respiratory movements, was measured during the last 4 minutes. During the last 4 minutes of a 6-minute forced swim, unmedicated inbred C57BL/6J mice spent 152 seconds of the possible 240 seconds immobile (FIG. 2). In contrast, inbred DBA/2J mice had baseline (unmedicated) immobilities of 47 seconds (see FIG. 2). […] We investigated the hypothesis that the differences between these two inbred mouse lines that result in differing baseline immobilities in the forced-swim test at least in part arise from differences in the amount of mRNA that accumulates from specific genes.
We purchased some of the compound (Toronto Research Chemicals Inc., 2 Brisbane Rd., North York, Ontario, Canada M3J 2J8) and dissolved it in phosphate-buffered saline (PBS) containing 2.5 percent methanol.
When plain PBS/methanol solution (without 3Ac-SL0101) was administered to C57BL/6J mice, their immobility was 127 seconds. When the solution containing the 3Ac-SL0101 compound was administered in a very low dose, their immobility was reduced to 78 seconds, indicative of an antidepressant-like effect. […] When the compound was administered to DBA/2J mice, it was effective at an approximately 10-fold lower dose than in C57BL/6J mice, highly consistent with the notion that it is functioning by reducing the activity of rpS6.

For test [2], the system named is DBA/2J mice. The experiment in a line: forced-swim test, DBA/2J mice. It is filed as in vivo, mouse. The note with it: DBA/2J mice versus C57BL/6J mice. The method, then:
as §1, with “genes. […]” for “genes.”

The next test concerns mice. The test is described as follows: tail-suspension test. Particulars: mouse, in vivo. The method, then: An additional procedure for monitoring the effects of antidepressants involves suspending the mice by the tail from a lever and recording movements of the animal. The total duration of the test (usually about 6 minutes) can be divided into periods of agitation and immobility. Antidepressants will generally decrease the duration of immobility (Stem et al., Psychopharmacology 85(3) 367-70). A computerized version of this test, referred to as […]-TST has been developed and is well known to those of skill in that art as a primary screening test for antidepressant activity (Stem et al., Prog. Neuropsychpharmacol. Biol. Psychiatry 11(6)659-671, 1987). Additional devices for monitoring depression also are known to those of skill in the art (Nomura et al., Yakubutsu Seishiiz Kodo 12(5)207-13, 1992).
As described above, the murine responses in forced swim and tail suspension tests provides a model for determining depression. We tested C57BL/6J and DBA/2J mice in the forced-swim and tail-suspension tests. […] Test duration was 6 minutes and immobility, defined as the absence of all movement except minor movement required for the mouse to keep its head above the surface, was measured during the last 4 minutes. […] The duration of the test was 6 minutes and immobility, defined as the absence of all but respiratory movements, was measured during the last 4 minutes. […]

Test [3] relates to p90 ribosomal S6 kinase, or RSK. The note with it: cultured tumor cells; cited from earlier work.
In a further test the target is RSK2 (Homo sapiens, UniProt P51812). The note with it: cited from earlier work.
Test [4] deals with DBA/2J mice. Particulars: baseline 100 seconds; cited from earlier work.
The next test relates to p90 RSK. Particulars: cited from earlier work.
In test [5] the test system is C57BL/6J mice. The note with it: 10 mg/kg, last 4 minutes of 6-minute forced swim, unmedicated 143 seconds; cited from earlier work.

SMILES strings stand for the structures.

Sequence of RSK2 (P51812 whole entry): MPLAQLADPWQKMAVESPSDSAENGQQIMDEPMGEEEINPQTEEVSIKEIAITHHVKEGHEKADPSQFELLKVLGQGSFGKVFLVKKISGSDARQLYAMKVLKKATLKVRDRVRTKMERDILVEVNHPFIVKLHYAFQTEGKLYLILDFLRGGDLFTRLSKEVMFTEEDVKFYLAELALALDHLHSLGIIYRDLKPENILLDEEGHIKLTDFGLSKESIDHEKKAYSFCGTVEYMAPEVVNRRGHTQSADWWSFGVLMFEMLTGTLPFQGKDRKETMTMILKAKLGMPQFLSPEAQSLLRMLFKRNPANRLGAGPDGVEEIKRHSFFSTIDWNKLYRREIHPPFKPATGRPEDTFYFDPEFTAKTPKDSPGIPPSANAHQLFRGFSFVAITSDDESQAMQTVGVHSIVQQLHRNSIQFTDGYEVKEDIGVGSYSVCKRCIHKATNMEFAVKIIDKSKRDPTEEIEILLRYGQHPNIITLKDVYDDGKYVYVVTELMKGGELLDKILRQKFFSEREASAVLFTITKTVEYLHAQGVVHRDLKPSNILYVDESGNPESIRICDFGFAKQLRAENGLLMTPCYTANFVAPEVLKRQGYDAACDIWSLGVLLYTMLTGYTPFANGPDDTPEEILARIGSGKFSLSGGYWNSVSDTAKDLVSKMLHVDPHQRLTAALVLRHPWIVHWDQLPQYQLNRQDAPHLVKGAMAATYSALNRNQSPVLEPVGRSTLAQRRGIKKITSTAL

Take `CC(=O)O[C@@H]1[C@@H](OC(C)=O)[C@H](C)O[C@@H](Oc2c(-c3ccc(O)cc3)oc3cc(O)cc(O)c3c2=O)[C@@H]1OC(C)=O` [3Ac-SL0101]: the “immobility in forced-swim test” value with C57BL/6J mice [1] (20-fold higher dose) was 0 s; with C57BL/6J mice [1] (very low dose, PBS/methanol control 127 seconds) it was 78 s. Besides, the “dose response of immobility in forced-swim test” value in the test with C57BL/6J mice [1] (varying dosages, FIG. 3) is recorded as “monotonic dose-response effect”. Further, the “effective dose in DBA/2J mice relative to C57BL/6J mice” value in the test on DBA/2J mice [2] was “approximately 10 fold lower dose”. Also, the “immobility in tail-suspension test” value in the test on mice is on record as “reduced immobility”. Further, in test [3], the “inhibition of RSK activity” value is reported as “inhibits the activity of this kinase”.
For the molecule `O=c1c(O)c(-c2ccc(O)cc2)oc2cc(O)cc(O)c12` [kaempferol], the “immobility time in forced-swim test” value with C57BL/6J mice [1] (dose dependent manner, within minutes after intraperitoneal injection) is “reduce immobility time”. Further, the “inhibition of RSK2” value on RSK2 is reported as “inhibitor of the RSK2”.
Consider `CNCCC(Oc1ccc(C(F)(F)F)cc1)c1ccccc1` (stereo not shown) [fluoxetine], for which the “immobility in forced swim” value in the test on DBA/2J mice [4] is 50 s.
Turning to `CC(C)CCN1c2nc(Nc3cc(F)c(O)c(F)c3)ncc2N(C)C(=O)C1C` (stereo not shown) [BI-D1870], the “time of immobility in forced swim test” value in the test on C57BL/6J mice [1] (FIG. 4) was “substantial reduction”. For the same molecule, the “inhibition of p90 RSK” value in the test on p90 RSK is listed as “specific inhibitor of the p90 RSK”.
With `CNCCCN1c2ccccc2CCc2ccccc21` [desipramine], the “immobility in forced swim” value was 100 s in the test on C57BL/6J mice [5] and 50 s with DBA/2J mice [4].
